According to patent US8415351B2 (priority 2007, dated 2013):
Read-outs that look alike come from different tables or passages of the source.

Experiments:
[1] = target: T1, HCV polymerase 1B (Δ21 NS5B, BK) (Hepatitis C virus genotype 1b, UniProt P26663); assay: biochemical
T1 construct: 20 to 50 nM Δ21 NS5B
Outline: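 Δ21 NS5B (genotype 1b, BK […]) preincubated 15 min RT with inhibitor, 2 mM MnCl2, pH 7.4, 60–125 μM GTP; started with 20 μM CTP/ATP, 1 μM 3H-UTP, 5 nM template RNA, run 2–4 h RT. Spermine-precipitated RNA filter-captured, scintillation counted; IC50 from tight-binding (Morrison) fit.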

[2] = tested on: genotype 1b-Con1 subgenomic replicon cell line; assay: microbe, parasite or virus in culture; assay type: cell-based, HCV; settings: read-out: EC50 1b
[3] = target: T2, HCV polymerase 1A (Δ21 NS5B, H77) (Hepatitis C virus genotype 1a, UniProt P27958); assay: biochemical
T2 construct: 20 to 50 nM Δ21 NS5B
Outline: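 Radiometric assay with Δ21 NS5B (H77): 20 μM CTP, 20 μM ATP, 1 μM ^3H-UTP, 5 nM template RNA, 2–4 h at room temperature. RNA precipitated with spermine, filter-captured and counted. IC50 from non-linear fit of retained cpm vs inhibitor concentration (tight-binding equation).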

[4] = tested on: genotype 1a-H77 subgenomic replicon cell line; assay: microbe, parasite or virus in culture; assay type: cell-based, HCV; settings: read-out: EC50 1a

T2 sequence (P27958 2421-2990, stated change not applied): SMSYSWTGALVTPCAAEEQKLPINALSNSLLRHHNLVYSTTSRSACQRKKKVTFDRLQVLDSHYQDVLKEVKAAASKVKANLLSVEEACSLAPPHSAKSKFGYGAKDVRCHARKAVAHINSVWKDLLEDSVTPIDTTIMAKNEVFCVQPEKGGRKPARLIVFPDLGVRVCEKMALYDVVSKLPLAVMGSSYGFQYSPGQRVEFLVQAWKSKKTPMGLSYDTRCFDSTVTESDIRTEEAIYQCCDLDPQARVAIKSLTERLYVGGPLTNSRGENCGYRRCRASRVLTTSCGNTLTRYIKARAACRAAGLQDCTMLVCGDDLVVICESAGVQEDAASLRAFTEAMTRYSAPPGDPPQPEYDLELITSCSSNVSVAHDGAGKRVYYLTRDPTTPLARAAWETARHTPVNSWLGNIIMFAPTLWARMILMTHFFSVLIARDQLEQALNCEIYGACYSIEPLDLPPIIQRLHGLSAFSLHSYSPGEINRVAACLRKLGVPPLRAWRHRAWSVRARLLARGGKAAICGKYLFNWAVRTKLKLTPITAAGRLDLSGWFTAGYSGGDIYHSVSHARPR
T1 sequence (P26663 2420-2989, stated change not applied): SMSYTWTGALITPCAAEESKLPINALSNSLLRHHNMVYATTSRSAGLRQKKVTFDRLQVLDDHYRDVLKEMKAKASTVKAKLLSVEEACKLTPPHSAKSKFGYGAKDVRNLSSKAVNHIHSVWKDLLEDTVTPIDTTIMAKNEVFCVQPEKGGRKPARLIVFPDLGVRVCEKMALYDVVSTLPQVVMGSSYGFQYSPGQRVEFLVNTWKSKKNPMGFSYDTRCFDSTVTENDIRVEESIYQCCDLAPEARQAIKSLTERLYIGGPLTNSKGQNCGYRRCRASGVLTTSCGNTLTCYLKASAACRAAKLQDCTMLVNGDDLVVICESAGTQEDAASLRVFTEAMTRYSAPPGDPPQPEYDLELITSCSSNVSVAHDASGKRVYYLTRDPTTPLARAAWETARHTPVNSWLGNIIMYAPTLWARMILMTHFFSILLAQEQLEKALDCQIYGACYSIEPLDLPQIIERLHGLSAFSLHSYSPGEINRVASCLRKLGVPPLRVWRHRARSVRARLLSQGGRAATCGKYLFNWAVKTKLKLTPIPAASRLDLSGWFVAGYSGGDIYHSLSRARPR

Row | Compound | IC50 [1] [nM] | EC50 ([2]; Hepatitis C virus) [nM] | IC50 ([3]; IC50 1a) [nM] | EC50 ([4]; Hepatitis C virus) [nM] | IC50 ([1]; HCV polymerase 1b, read-out: IC50 1b) [nM] | EC50 ([2]; genotype 1b-Con1 replicon, luciferase reporter) [nM] | IC50 ([3]; read-out: IC50 1a) [nM] | EC50 ([4]; genotype 1a-H77 replicon, luciferase reporter) [nM] | IC50 ([1]; read-out: IC50 1b, HCV polymerase 1b) [nM] | EC50 [2] [nM] | EC50 [4] [nM]
1 | COc1c(C#Cc2ccc(NS(C)(=O)=O)c(C)c2)cc(N2CCC(=O)NC2=O)cc1C(C)(C)C [IA-L2-1.10, N-(4-((3-tert-butyl-5-(2,4-dioxotetrahydropyrimidin-1(2H)-yl)-2-methoxyphenyl)ethynyl)-2-methylphenyl)methanesulfonamide] | 10 to 100 | 10 to 100 | 10 to 100 | 100 to 1000 |  |  |  |  |  |  | 
2 | CC(C)(C)c1cc(N2CCC(=O)NC2=O)cc(C(=O)Nc2ccc3c(c2)CS(=O)(=O)C3)c1O [IA-L3-2.5, 3-tert-butyl-N-(2,2-dioxo-1,3-dihydrobenzo[c]thiophen-5-yl)-5-(2,4-dioxotetrahydropyrimidin-1(2H)-yl)-2-hydroxybenzamide] | 100 to 1000 | > 1000 | > 1000 | > 1000 |  |  |  |  |  |  | 
3 | CNS(=O)(=O)Cc1ccc(NC(=O)c2cc(N3CCC(=O)NC3=O)cc(C(C)(C)C)c2OC)cc1 [IA-L3-1.31, 3-tert-butyl-5-(2,4-dioxotetrahydropyrimidin-1(2H)-yl)-2-methoxy-N-(4-(N-methylsulfamoylmethyl)phenyl)benzamide] | > 1000 | > 1000 | > 1000 | > 1000 |  |  |  |  |  |  | 
4 | COc1c(-c2ccc3c(c2)CC=C3CNS(C)(=O)=O)cc(-n2ccc(=O)[nH]c2=O)cc1C(C)(C)C [IB-L0-2.13, N-((6-(3-tert-butyl-5-(2,4-dioxo-3,4-dihydropyrimidin-1(2H)-yl)-2-methoxyphenyl)-1H-inden-3-yl)methyl)methanesulfonamide] | 10 to 100 | < 10 | < 10 | 10 to 100 |  |  |  |  |  |  | 
5 | Cc1noc(C)c1S(=O)(=O)Nc1ccc(NC(=O)c2cc(N3CCC(=O)NC3=O)cc(C(C)(C)C)c2O)cc1 [IA-L3-1.13, 3-tert-butyl-N-(4-(3,5-dimethylisoxazole-4-sulfonamido)phenyl)-5-(2,4-dioxotetrahydro-pyrimidin-1(2H)-yl)-2-hydroxybenzamide] | < 10 | > 1000 | 100 to 1000 | > 1000 |  |  |  |  |  |  | 
6 | COc1cc(NS(C)(=O)=O)ccc1NC(=O)c1cc(N2CCC(=O)NC2=O)cc(C(C)(C)C)c1OC [IA-L3-1.85, 3-tert-butyl-5-(2,4-dioxotetrahydropyrimidin-1(2H)-yl)-2-methoxy-N-(2-methoxy-4-(methylsulfonamido)phenyl)benzamide] | 100 to 1000 | 100 to 1000 | 100 to 1000 | 100 to 1000 |  |  |  |  |  |  | 
7 | CC(C)(C)c1cc(N2CCC(=O)NC2=O)cc(C(=O)Nc2ccccc2)c1O [IA-L3-1.3, 3-tert-butyl-5-(2,4-dioxotetrahydropyrimidin-1(2H)-yl)-2-hydroxy-N-phenylbenzamide] | 100 to 1000 | > 1000 | > 1000 | > 1000 |  |  |  |  |  |  | 
8 | COc1c(C#Cc2ccc(NS(C)(=O)=O)cc2C(=O)N2CCOCC2)cc(-n2ccc(=O)[nH]c2=O)cc1C(C)(C)C [IB-L2-1.11, N-(4-((3-tert-butyl-5-(2,4-dioxo-3,4-dihydropyrimidin-1(2H)-yl)-2-methoxyphenyl)ethynyl)-3-(morpholine-4-carbonyl)phenyl)methanesulfonamide] | 10 to 100 | 10 to 100 | 10 to 100 | 100 to 1000 |  |  |  |  |  |  | 
9 | CC(C)(C)c1cc(N2CCC(=O)NC2=O)cc(C(=O)Nc2cccc(NS(C)(=O)=O)c2)c1O [IA-L3-1.5, 3-tert-butyl-5-(2,4-dioxotetrahydropyrimidin-1(2H)-yl)-2-hydroxy-N-(3-(methylsulfonamido)phenyl)benzamide] | 10 to 100 | > 1000 | 100 to 1000 | > 1000 |  |  |  |  |  |  | 
10 | CC(C)(C)c1cc(N2CCC(=O)NC2=O)cc(C(=O)Nc2ccc(NS(=O)(=O)c3ccccc3)cc2)c1O [IA-L3-1.10, 3-tert-butyl-5-(2,4-dioxotetrahydropyrimidin-1(2H)-yl)-2-hydroxy-N-(4-(phenylsulfon-amido)phenyl)benzamide] | 10 to 100 | 100 to 1000 | 10 to 100 | 100 to 1000 |  |  |  |  |  |  | 
11 | COc1c(-c2ccc(/C=N/NS(C)(=O)=O)c(F)c2)cc(-n2ccc(=O)[nH]c2=O)cc1C(C)(C)C [IB-L0-1.3, (E)-N′-((3′-tert-butyl-5′-(2,4-dioxo-3,4-dihydropyrimidin-1(2H)-yl)-3-fluoro-2′-methoxybiphenyl-4-yl)methylene)methanesulfonohydrazide] | 10 to 100 | 10 to 100 | 10 to 100 | 100 to 1000 |  |  |  |  |  |  | 
12 | COCCS(=O)(=O)Nc1ccc(NC(=O)c2cc(N3CCC(=O)NC3=O)cc(C(C)(C)C)c2O)cc1 [IA-L3-1.8, 3-tert-butyl-5-(2,4-dioxotetrahydropyrimidin-1(2H)-yl)-2-hydroxy-N-(4-(2-methoxyethylsulfonamido)phenyl)benzamide] | 10 to 100 | 100 to 1000 | 10 to 100 | > 1000 |  |  |  |  |  |  | 
13 | COc1c(C(=O)N[C@H]2CC[C@H](NS(C)(=O)=O)CC2)cc(N2CCC(=O)NC2=O)cc1C(C)(C)C [IA-L3-1.103, 3-tert-butyl-5-(2,4-dioxotetrahydropyrimidin-1(2H)-yl)-2-methoxy-N-((1r,4r)-4-(methylsulfon amido)cyclohexyl)benzamide] |  |  |  |  | > 1000 | > 1000 | 100 to 1000 | > 1000 |  |  | 
14 | CC(C)(C)c1cc(N2CCC(=O)NC2=O)cc(C(=O)Nc2ccc(S(C)(=O)=O)cc2)c1O [IA-L3-1.21, 3-tert-butyl-5-(2,4-dioxotetrahydropyrimidin-1(2H)-yl)-2-hydroxy-N-(4-(methylsulfonyl)phenyl)benzamide] | 100 to 1000 | > 1000 | > 1000 | > 1000 |  |  |  |  |  |  | 
15 | COc1c(C(=O)Nc2ccc(N)cc2)cc(N2CCC(=O)NC2=O)cc1C(C)(C)C [IA-L3-1.107, N-(4-aminophenyl)-3-tert-butyl-5-(2,4-dioxotetrahydropyrimidin-1(2H)-yl)-2-methoxy benzamide] | > 1000 | > 1000 | > 1000 | > 1000 |  |  |  |  |  |  | 
16 | COc1c(/C=C\c2ccc(NS(C)(=O)=O)cc2)cc(N2CCC(=O)NC2=O)cc1C(C)(C)C [IA-L1-1.20, (Z)—N-(4-(3-tert-butyl-5-(2,4-dioxotetrahydropyrimidin-1(2H)-yl)-2-methoxystyryl)phenyl)methanesulfonamide] |  |  | < 10 |  |  |  |  |  | 10 to 100 | 10 to 100 | 10 to 100
17 | CC(C)(C)c1cc(-c2ccc3c(c2)CC/C3=N\NS(C)(=O)=O)cc(-n2ccc(=O)[nH]c2=O)c1 [IB-L0-2.7, (E)-N′-(5-(3-tert-butyl-5-(2,4-dioxo-3,4-dihydropyrimidin-1(2H)-yl)phenyl)-2,3-dihydro-1H-inden-1-ylidene)methanesulfonohydrazide] | 10 to 100 | 10 to 100 | 10 to 100 | 100 to 1000 |  |  |  |  |  |  | 
18 | COc1cc(NS(C)(=O)=O)ccc1NC(=O)c1cc(N2CCC(=O)NC2=O)cc(C(C)(C)C)c1O [IA-L3-1.119, 3-tert-butyl-5-(2,4-dioxotetrahydropyrimidin-1(2H)-yl)-2-hydroxy-N-(2-methoxy-4-(methylsulfonamido)phenyl)benzamide] | < 10 | 10 to 100 | 10 to 100 | 100 to 1000 |  |  |  |  |  |  | 
19 | COc1c(-c2ccc3c(c2)CC[C@@H]3CNS(C)(=O)=O)cc(-n2ccc(=O)[nH]c2=O)cc1C(C)(C)C (single isomer, unassigned) [IB-L0-2.9] | < 10 | < 10 | < 10 | < 10 |  |  |  |  |  |  | 
20 | CC(C)(C)OC(=O)N(Cc1csc(NC(=O)c2cc(N3CCC(=O)NC3=O)cc(C(C)(C)C)c2O)c1)S(C)(=O)=O [IA-L3-1.98, tert-butyl (5-(3-tert-butyl-5-(2,4-dioxotetrahydropyrimidin-1(2H)-yl)-2-hydroxybenzamido)thiophen-3-yl)methyl(methylsulfonyl)carbamate] | 100 to 1000 | 100 to 1000 | > 1000 | > 1000 |  |  |  |  |  |  | 
21 | COc1c(NC(=O)c2ccc(NS(C)(=O)=O)cc2Cl)cc(N2CCC(=O)NC2=O)cc1C(C)(C)C [IA-L4-1.12, N-(3-tert-butyl-5-(2,4-dioxotetrahydropyrimidin-1(2H)-yl)-2-methoxyphenyl)-2-chloro-4-(methylsulfonamido)benzamide] | 10 to 100 | 100 to 1000 | 10 to 100 | 100 to 1000 |  |  |  |  |  |  | 
22 | COc1c(C#Cc2ccc(NS(C)(=O)=O)cc2C)cc(N2CCC(=O)NC2=O)cc1C(C)(C)C [IA-L2-1.9, N-(4-((3-tert-butyl-5-(2,4-dioxotetrahydropyrimidin-1(2H)-yl)-2-methoxyphenyl)ethynyl)-3-methylphenyl)methanesulfonamide] | < 10 | < 10 | < 10 | < 10 |  |  |  |  |  |  | 
23 | COc1c(C#Cc2ccc(NS(C)(=O)=O)cc2)cc(N2CCC(=O)NC2=O)cc1C1CC1 [IA-L2-1.23, N-(4-((3-cyclopropyl-5-(2,4-dioxotetrahydropyrimidin-1(2H)-yl)-2-methoxyphenyl)ethynyl)phenyl)methanesulfonamide] | 100 to 1000 | 100 to 1000 | 100 to 1000 | > 1000 |  |  |  |  |  |  | 
